Measured values as given in PubChem BioAssay AID434951 (Broad Institute, 2010).
The source made the active and inactive calls.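 The calls were made as follows: active = a fitted half-maximal concentration EC50 for the rise in nuclear signal no higher than ten times the top dose tested; inconclusive = flat fit with activity between 30% and 70%, or unusable fit; inactive = EC50 beyond ten times the top dose.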

Biological target: Hypoxia-inducible factor 1-alpha (Homo sapiens) (UniProt Q16665)
Assay: HIF pathway activation, GFP-HIF1alpha translocation – imaging, fluorescence, U2OS GFP-HIF1alpha, confirmation (AID 434951)
Conditions: U2OS GFP-HIF1alpha nuclear intensity, high-content imaging

Sequence of Hypoxia-inducible factor 1-alpha (Homo sapiens) (Q16665 whole entry, looked up): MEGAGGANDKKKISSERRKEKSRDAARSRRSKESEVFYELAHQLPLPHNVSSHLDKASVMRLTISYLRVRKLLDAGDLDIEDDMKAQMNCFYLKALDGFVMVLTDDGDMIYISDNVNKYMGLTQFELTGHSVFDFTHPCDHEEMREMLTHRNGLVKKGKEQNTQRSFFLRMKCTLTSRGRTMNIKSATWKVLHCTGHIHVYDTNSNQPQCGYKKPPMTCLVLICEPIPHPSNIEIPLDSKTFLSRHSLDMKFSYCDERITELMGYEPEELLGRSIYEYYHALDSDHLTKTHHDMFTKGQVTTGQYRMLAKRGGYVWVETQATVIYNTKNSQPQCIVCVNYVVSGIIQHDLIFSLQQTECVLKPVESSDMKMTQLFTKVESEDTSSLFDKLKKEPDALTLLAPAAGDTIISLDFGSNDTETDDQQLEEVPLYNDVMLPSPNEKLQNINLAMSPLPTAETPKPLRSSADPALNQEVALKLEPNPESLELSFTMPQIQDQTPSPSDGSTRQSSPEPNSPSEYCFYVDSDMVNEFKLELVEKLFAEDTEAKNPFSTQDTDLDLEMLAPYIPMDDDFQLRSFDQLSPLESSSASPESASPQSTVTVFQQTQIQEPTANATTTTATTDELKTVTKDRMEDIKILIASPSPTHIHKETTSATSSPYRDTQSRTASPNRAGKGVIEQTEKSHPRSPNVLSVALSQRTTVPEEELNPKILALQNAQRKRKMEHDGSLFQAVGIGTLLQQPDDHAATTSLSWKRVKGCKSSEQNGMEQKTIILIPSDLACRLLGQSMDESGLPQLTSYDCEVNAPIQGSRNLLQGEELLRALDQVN

| Structure (SMILES) | EC50 |
| --- | --- |
| Cc1ccc2[nH]c3c(=O)n(CC(=O)NCCCN(C)Cc4ccccc4)ncc3c2c1 | > 35 µM (inactive) |
| COc1ccc(NC(=S)c2ccc(N(C)C)cc2)cc1 | > 35 µM (inactive) |
| COc1cccc(/C=N/NC(=O)c2[nH]nc3c2CCc2ccccc2-3)c1O | 1.94 µM |
| O=C(N/N=C/c1cc(Br)cc(Br)c1O)c1ccncc1 | > 35 µM (inactive) |
| O=C(CCCc1ccccc1)Nc1ccccn1 | > 35 µM (inactive) |
| CCn1nc(C(=O)OCC(=O)NC(C)C)c2ccccc2c1=O | > 35 µM (inactive) |
| Cc1ccc(C)c(OCC(=O)N2CCN(Cc3ccc4c(c3)OCO4)CC2)c1 | > 35 µM (inactive) |
| O=C(CNC(=O)c1ccccc1Br)N/N=C/c1cc(Br)ccc1O | 6.52 µM |
| CC(C)c1cc(-c2cc(C(=O)NCc3ccccc3)on2)nc(NC2CCCC2)n1 | > 35 µM (inactive) |
| COc1ccc(CCNC(=O)COC(=O)CCC(=O)c2ccc(F)cc2)cc1OC | > 35 µM (inactive) |
| Cn1cccc1-c1cc(C(=O)N/N=C/c2cc(Br)ccc2O)[nH]n1 | 4.69 µM |
| CCN(CCCNC(=O)CCc1nc(-c2ccc(OC)cc2)no1)c1cccc(C)c1 | > 35 µM (inactive) |
| Cc1ccc(C2=NS(=O)(=O)N(C)C(C(=O)NC3CCCC3)=C2)cc1 | > 35 µM (inactive) |
| O=C(C1CCCN(Cc2ccccc2F)C1)N1CCc2ccccc2C1 (stereo not given) | > 35 µM (inactive) |
| CCNc1nc(Cl)nc(NNC(=O)C(C)Oc2ccccc2)n1 (stereo not given) | > 35 µM (inactive) |
| CCCNC(=O)c1cc2nc(-c3ccccc3)cc(C(F)(F)F)n2n1 | > 35 µM (inactive) |
| COc1cc(CC(=O)Nc2ccc(Cl)c(C(F)(F)F)c2)cc(OC)c1OC | > 35 µM (inactive) |
| CCOc1ccc(N2C(=O)CC(Sc3nc(C)cc(C)n3)C2=O)cc1 (stereo not given) | > 35 µM (inactive) |
| CC(=O)N1CCC(=NNc2nc3ccccc3[nH]2)CC1 | > 35 µM (inactive) |
| O=C(N/N=C/c1ccc(F)cc1)c1cc(-c2ccc3c(c2)OCO3)n[nH]1 | 16.2 µM |
| CCCC(=O)NC(c1ccccc1)c1ccc2cccnc2c1O (stereo not given) | 4.71 µM |
| Oc1c(CN2CCCCC2)cc(COCc2ccccc2)c2cccnc12 | 11.9 µM |
| COc1ccccc1C/C(N)=N/O | > 35 µM (inactive) |
| CC(C)Cc1nnc(NC(=O)CCC(=O)N2CCC3(CC2)OCCO3)s1 | > 35 µM (inactive) |
| COc1cccc(/C=N/Nc2ncnc3c2ncn3Cc2ccccc2)c1O | 5.97 µM |

| Structure (SMILES) | EC50 |
| --- | --- |
| O=C(Nc1nc(NC(=O)c2ccco2)n(-c2ccccc2)n1)c1ccccc1 | 13.1 µM |
| Cn1nnnc1N=N/C(=N/Nc1ccccc1)c1ccccc1 | 7.53 µM |
| CCOC(=O)c1c(S(=O)(=O)NCc2ccc(C)o2)c(C)n(C)c1C | > 35 µM (inactive) |
| O=C(CCCCCN1C(=O)c2ccccc2C1=O)Nc1ccc2c(c1)OCCO2 | > 35 µM (inactive) |
| CCOc1cccc(/C=N/Nc2ccc(S(=O)(=O)N(CC)CC)cn2)c1O | 3.59 µM |
| CCCc1[nH]nc2c1C(c1ccoc1)C(C#N)=C(N)O2 (stereo not given) | > 35 µM (inactive) |
| Brc1ccc(N/N=C(/N=Nc2nn[nH]n2)c2ccccc2)cc1 | 5.73 µM |
| Cc1nn(C(=O)c2cccnc2)c(C)c1Sc1ccccc1 | > 35 µM (inactive) |
| O=C(CN1C(=O)COc2ccc(Cl)cc21)Nc1ccc2c(c1)OCCO2 | > 35 µM (inactive) |
| O=C(Nc1nc2c(F)cc(F)cc2s1)c1ccccn1 | 5.5 µM |
| Cc1cc(C)cc(N(CC(=O)Nc2ccccc2C(=O)N2CCOCC2)S(C)(=O)=O)c1 | > 35 µM (inactive) |
| NC(=O)CSc1nnc2ccc(-c3ccc(Cl)cc3)nn12 | > 35 µM (inactive) |
| CCN(CC)c1ccc(NC(=O)CSc2nc3nc(C)cc(C)c3c(=O)[nH]2)cc1 | > 35 µM (inactive) |
| CNC(=O)C1CC(=O)N(c2ccc(OCC(=O)N3CCCC3)cc2)C1 (stereo not given) | > 35 µM (inactive) |
| COc1ccc(S(=O)(=O)N2CCC(c3cc(-c4cccc5ccccc45)n[nH]3)CC2)cc1 | > 35 µM (inactive) |
| COc1ccccc1NC(=O)CN(C)S(=O)(=O)c1cccc2cccnc12 | > 35 µM (inactive) |
| Cn1c(N/N=C/c2cc3ccccc3nc2Cl)nc2ccccc21 | 18.1 µM |
| O=C(NNC(=S)Nc1ccc(Cl)c(Cl)c1)c1ccccn1 | 6.71 µM |
| CCN(CC)S(=O)(=O)c1ccc(N/N=C/c2ccc(O)cc2O)nc1 | 0.715 µM |
| Cn1c(CCNC(=O)c2ccco2)nc2cc(NC(=O)C3CCCCC3)ccc21 | > 35 µM (inactive) |
| O=C(O)c1ccc2cccc(O)c2n1 | > 35 µM (inactive) |
| COc1ccc(NC(=S)Nc2ccccn2)c(OC)c1 | > 35 µM (inactive) |
| CNNC(=O)C(C)NC(=O)c1ccc(Br)cc1 (stereo not given) | > 35 µM (inactive) |
| Oc1ccc(CN2CCN(Cc3ccccc3)CC2)c2cccnc12 | > 35 µM (inactive) |
| CCC1CCCCN1Cc1c(O)ccc2c(=O)c(-c3ccccc3OC)coc12 (stereo not given) | > 35 µM (inactive) |

| Structure (SMILES) | EC50 |
| --- | --- |
| O=C(/C=C/c1ccc2c(c1)OCO2)Nc1cccnc1 | > 35 µM (inactive) |
| COc1cc2ccccc2cc1C(=O)NNC(=O)c1ccccc1O | > 35 µM (inactive) |
| Cc1cc(C)c(C(=O)N2CCCC(N3CCN(c4cccc(C(F)(F)F)c4)CC3)C2)o1 (stereo not given) | > 35 µM (inactive) |
| COC(CN(C(=O)CCl)C(C(=O)NC1CCCCC1)c1ccc(Cl)cc1)OC (stereo not given) | 19 µM |
| O=C(CSc1ncn[nH]1)NCCc1ccc(Cl)cc1Cl | > 35 µM (inactive) |
| CC(=O)c1ccc(C(=O)N2CCCC(Nc3ccc(C(C)C)cc3)C2)s1 (stereo not given) | > 35 µM (inactive) |
| Cc1cc(/C=N/n2c(COc3ccccc3)nc3ccccc3c2=O)c(O)c([N+](=O)[O-])c1 | 24.5 µM |
| COc1ccc(CC(=O)Nc2cccc(-c3nnc(-c4ccccc4)o3)c2)cc1OC | > 35 µM (inactive) |
| O=C(CCc1ccccc1)N/N=C/c1cc(Br)ccc1O | 13.2 µM |
| CC(=O)Nc1nc2ccccc2n1CCOc1ccccc1Cl | > 35 µM (inactive) |
| CC(=O)Nc1ccc(S(=O)(=O)Nc2ccc(S(=O)(=O)Nc3nccs3)cc2)cc1 | > 35 µM (inactive) |
| O=C(Nc1ccc2ccccc2c1)c1ccccc1O | > 35 µM (inactive) |
| CCN(CC)CCNC1=CC(=O)OC12CCCCC2 | > 35 µM (inactive) |
| COc1ccc(NC(=O)c2cccc(NC(=O)c3ccco3)c2)c(OC)c1 | > 35 µM (inactive) |
| CCOC(=O)C1=C(C)NC(C)=C(C(=O)OCC)C1C(=O)OCC(=O)N(C)C1CCS(=O)(=O)C1 (stereo not given) | > 35 µM (inactive) |
| CCNC(=O)COc1cccc(C(=O)NCc2ccccc2)c1 | > 35 µM (inactive) |
| COc1ccccc1N1CCN(CCCNC(=O)C2CCCN(c3ncnc4c3nc3n4CCCCC3)C2)CC1 (stereo not given) | > 35 µM (inactive) |
| CN1CCN(C2Cc3ccc(F)cc3Sc3cc(F)c(Cl)cc32)CC1 (stereo not given) | > 35 µM (inactive) |
| Cc1cc(Oc2ccccc2)nc(N2CCOCC2)n1 | > 35 µM (inactive) |
| Cc1nc2ccccc2c(=O)n1/N=C/c1ccc2ccccc2c1O | 22.2 µM |
| CCCc1nc2ccccc2c(=O)n1/N=C/c1ccccc1O | > 35 µM (inactive) |
| COc1cccc(CN2CCC(N(CCc3ccccc3)Cc3ccccc3)CC2)c1OC | > 35 µM (inactive) |
| Cc1ccc(N=Nc2ccc(O)c(/C=N\NC(=O)c3ccc(N)cc3)c2)cc1C | > 35 µM (inactive) |
| C=CCc1cccc(/C=N/NC(=O)c2ccc3nc[nH]c3c2)c1O | 34.6 µM |
| COc1ccccc1-c1cc(C(F)(F)F)nc(S(=O)(=O)CCCC(=O)NCc2ccc(F)cc2)n1 | 9.53 µM |
